{"source": "ChEMBL document CHEMBL1150977", "about": "“A quantitative analysis of kinase inhibitor selectivity” (Nat Biotechnol, 2008)", "key": {"[1]": {"target": "Casein kinase I isoform gamma-1 (Homo sapiens, UniProt Q9HCP0)", "sequence (Q9HCP0 whole entry, canonical isoform)": "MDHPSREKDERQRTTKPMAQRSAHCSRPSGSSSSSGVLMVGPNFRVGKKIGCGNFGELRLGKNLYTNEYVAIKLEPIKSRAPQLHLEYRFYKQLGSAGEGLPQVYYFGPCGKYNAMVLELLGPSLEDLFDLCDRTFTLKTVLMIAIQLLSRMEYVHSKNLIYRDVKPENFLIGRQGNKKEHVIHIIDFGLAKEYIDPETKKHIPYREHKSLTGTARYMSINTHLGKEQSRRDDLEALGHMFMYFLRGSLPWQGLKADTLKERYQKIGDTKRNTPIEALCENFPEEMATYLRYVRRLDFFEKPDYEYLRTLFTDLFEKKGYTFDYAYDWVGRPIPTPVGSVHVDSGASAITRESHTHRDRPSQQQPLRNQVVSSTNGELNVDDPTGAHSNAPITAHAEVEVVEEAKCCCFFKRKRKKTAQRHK"}, "[2]": {"target": "T1, Serine/threonine-protein kinase D2 (Homo sapiens, UniProt Q9BZL6)", "T1 sequence (Q9BZL6 whole entry)": "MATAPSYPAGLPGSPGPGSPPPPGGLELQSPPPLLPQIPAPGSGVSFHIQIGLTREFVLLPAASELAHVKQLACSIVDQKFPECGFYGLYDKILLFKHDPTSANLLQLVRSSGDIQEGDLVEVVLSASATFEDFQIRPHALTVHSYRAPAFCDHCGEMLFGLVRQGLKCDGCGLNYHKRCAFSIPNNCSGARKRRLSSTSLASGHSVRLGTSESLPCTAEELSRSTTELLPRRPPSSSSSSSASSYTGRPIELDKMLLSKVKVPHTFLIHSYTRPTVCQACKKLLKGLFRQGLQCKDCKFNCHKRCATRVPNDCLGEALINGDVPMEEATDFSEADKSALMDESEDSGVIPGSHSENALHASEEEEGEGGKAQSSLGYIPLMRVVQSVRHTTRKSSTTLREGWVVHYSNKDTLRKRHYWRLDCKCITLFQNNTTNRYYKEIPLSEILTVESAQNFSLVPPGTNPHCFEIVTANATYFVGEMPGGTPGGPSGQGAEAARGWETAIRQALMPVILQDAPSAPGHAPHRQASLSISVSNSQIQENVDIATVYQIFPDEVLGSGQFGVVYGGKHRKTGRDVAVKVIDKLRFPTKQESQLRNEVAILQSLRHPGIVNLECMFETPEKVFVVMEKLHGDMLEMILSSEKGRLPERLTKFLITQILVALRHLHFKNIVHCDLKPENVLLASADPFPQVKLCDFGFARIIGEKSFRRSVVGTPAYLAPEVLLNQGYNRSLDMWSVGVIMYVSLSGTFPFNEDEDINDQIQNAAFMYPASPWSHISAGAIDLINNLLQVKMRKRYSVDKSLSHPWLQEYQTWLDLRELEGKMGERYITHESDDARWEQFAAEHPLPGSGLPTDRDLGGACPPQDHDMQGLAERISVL"}, "SRSF protein kinase 1": {"target": "SRSF protein kinase 1 (Homo sapiens, UniProt Q96SB4)", "sequence (Q96SB4 whole entry)": "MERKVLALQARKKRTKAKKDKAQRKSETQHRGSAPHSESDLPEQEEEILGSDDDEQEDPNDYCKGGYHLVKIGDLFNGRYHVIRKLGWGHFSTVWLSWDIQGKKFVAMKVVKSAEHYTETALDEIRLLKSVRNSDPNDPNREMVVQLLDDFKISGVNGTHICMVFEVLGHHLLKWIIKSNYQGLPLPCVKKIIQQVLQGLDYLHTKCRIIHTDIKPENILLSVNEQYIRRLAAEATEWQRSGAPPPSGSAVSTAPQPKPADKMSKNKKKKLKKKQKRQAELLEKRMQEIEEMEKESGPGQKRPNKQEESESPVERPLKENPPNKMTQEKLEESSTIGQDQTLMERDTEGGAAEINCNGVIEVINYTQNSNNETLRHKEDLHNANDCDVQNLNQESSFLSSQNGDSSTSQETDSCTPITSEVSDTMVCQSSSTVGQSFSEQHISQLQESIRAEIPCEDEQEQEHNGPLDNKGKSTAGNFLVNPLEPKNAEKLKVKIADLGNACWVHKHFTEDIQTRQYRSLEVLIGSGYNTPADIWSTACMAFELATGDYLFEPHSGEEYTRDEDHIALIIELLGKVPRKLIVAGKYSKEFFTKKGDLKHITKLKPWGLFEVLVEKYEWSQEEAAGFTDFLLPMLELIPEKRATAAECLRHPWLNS"}, "[3]": {"target": "Fibroblast growth factor receptor 4 (Homo sapiens, UniProt P22455)", "sequence (P22455 whole entry)": "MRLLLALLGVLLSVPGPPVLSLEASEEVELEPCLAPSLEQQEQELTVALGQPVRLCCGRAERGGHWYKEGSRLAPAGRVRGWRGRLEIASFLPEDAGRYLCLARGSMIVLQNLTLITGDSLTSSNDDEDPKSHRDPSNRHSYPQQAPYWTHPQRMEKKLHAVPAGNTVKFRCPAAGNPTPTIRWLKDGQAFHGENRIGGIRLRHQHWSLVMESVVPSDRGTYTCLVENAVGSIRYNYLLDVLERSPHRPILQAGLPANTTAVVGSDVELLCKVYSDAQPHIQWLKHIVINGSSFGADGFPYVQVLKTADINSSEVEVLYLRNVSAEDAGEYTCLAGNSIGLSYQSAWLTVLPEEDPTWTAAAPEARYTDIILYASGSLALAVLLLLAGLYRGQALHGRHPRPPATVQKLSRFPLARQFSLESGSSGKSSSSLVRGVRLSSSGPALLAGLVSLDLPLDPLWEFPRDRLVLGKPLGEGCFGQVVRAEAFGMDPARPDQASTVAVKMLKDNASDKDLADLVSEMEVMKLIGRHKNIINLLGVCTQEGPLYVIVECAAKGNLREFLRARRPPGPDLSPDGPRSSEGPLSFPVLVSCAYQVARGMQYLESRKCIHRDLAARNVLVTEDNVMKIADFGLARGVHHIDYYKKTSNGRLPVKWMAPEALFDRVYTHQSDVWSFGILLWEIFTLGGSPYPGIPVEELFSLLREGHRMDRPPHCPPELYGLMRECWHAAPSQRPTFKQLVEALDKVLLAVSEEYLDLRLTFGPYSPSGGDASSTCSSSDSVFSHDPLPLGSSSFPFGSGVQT"}, "[4]": {"target": "Serine/threonine-protein kinase 10 (Homo sapiens, UniProt O94804)", "sequence (O94804 whole entry)": "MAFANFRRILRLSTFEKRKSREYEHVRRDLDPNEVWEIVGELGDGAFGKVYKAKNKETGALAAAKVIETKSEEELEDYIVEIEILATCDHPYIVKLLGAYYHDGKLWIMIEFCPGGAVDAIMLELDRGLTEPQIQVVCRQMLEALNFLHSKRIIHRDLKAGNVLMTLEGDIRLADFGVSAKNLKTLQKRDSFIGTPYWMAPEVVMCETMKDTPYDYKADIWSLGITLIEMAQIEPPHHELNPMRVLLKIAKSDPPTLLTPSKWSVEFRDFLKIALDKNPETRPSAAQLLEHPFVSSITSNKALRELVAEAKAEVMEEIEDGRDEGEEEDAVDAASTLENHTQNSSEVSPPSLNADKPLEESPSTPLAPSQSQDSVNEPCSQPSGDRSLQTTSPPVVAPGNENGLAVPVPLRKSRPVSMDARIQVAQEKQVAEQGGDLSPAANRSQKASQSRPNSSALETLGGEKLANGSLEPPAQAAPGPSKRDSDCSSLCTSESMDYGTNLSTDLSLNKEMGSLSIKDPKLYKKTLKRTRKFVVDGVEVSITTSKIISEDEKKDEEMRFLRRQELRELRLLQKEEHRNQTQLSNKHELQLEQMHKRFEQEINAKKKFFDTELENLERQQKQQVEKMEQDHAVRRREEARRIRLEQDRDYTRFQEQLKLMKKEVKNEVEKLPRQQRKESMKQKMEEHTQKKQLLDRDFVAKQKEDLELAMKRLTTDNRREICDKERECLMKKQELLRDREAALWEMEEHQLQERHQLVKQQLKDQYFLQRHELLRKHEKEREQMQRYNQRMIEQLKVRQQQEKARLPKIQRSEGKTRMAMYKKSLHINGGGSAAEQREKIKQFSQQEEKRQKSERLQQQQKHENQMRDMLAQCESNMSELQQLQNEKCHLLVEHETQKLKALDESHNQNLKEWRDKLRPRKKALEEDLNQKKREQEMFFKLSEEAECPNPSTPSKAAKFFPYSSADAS"}, "[5]": {"target": "Insulin receptor-related protein (Homo sapiens, UniProt P14616)", "sequence (P14616 27-742 limits assumed)": "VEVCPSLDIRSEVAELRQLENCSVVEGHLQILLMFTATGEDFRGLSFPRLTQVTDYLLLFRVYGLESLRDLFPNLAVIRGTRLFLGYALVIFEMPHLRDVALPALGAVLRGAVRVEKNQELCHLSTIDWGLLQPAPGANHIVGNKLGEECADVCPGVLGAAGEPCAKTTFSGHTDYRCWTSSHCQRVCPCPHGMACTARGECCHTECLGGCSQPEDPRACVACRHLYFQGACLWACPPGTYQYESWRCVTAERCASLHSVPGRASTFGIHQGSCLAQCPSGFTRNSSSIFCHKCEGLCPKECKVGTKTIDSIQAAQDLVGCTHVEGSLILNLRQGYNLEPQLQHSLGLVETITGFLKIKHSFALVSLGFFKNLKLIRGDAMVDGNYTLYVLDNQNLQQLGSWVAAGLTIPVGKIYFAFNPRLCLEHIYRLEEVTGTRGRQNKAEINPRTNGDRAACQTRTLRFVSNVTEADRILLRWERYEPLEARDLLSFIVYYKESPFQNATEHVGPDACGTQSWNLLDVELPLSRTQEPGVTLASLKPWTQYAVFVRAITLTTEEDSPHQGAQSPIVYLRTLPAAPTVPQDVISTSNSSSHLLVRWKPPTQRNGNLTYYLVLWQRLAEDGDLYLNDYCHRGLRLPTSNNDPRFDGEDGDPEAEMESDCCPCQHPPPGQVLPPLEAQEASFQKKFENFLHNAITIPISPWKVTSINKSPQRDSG", "sequence (P14616 747-1297 limits assumed)": "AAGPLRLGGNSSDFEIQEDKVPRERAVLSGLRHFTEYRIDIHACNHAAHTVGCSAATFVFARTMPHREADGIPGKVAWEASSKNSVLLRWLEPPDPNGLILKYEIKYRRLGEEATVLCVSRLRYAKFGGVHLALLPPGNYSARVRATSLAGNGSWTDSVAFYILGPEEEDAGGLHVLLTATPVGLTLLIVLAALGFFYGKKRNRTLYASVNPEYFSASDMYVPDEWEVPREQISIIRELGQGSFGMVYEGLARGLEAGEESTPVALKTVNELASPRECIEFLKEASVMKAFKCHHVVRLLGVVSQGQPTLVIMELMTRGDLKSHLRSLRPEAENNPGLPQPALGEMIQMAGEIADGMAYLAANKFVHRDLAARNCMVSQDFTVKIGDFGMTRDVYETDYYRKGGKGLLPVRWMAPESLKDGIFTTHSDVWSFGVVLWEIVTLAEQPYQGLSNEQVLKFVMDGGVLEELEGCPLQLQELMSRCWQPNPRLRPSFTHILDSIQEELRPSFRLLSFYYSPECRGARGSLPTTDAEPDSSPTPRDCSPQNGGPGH"}, "[6]": {"target": "T2, Serine/threonine-protein kinase NLK (Homo sapiens, UniProt Q9UBE8)", "T2 sequence (Q9UBE8 whole entry)": "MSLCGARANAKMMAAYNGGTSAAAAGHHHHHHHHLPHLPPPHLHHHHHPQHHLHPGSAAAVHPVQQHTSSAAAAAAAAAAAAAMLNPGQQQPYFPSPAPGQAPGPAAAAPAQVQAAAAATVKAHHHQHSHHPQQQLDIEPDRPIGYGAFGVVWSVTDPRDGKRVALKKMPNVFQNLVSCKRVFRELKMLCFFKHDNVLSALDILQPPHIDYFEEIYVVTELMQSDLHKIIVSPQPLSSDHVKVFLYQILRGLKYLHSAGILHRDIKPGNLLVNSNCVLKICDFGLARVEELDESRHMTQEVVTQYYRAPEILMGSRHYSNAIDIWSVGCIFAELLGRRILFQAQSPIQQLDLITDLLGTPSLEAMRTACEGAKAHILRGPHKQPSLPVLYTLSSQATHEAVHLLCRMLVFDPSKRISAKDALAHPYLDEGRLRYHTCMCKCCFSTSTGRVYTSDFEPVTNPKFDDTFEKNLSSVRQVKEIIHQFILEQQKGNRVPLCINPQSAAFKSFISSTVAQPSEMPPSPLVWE"}, "[7]": {"target": "Calcium/calmodulin-dependent protein kinase type II subunit beta (Homo sapiens, UniProt Q13554)", "sequence (Q13554 whole entry)": "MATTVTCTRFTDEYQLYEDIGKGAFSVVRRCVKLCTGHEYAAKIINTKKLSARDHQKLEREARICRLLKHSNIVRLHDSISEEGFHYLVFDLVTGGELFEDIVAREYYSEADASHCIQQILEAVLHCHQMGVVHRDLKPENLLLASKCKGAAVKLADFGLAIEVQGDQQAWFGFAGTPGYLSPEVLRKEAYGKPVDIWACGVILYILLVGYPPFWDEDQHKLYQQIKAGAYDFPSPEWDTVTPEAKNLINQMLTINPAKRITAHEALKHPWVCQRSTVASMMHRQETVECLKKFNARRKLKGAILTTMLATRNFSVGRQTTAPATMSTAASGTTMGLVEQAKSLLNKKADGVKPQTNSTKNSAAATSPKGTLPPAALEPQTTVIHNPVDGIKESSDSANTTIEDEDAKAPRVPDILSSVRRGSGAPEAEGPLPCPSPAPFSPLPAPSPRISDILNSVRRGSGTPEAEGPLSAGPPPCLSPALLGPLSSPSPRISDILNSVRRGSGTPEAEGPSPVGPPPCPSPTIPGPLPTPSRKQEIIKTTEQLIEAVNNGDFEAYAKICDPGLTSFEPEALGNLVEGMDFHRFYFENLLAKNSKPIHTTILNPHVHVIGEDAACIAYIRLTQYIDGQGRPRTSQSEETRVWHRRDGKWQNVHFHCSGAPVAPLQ"}, "[8]": {"target": "T3, Serine/threonine-protein kinase LATS2 (Homo sapiens, UniProt Q9NRM7)", "T3 sequence (Q9NRM7 whole entry)": "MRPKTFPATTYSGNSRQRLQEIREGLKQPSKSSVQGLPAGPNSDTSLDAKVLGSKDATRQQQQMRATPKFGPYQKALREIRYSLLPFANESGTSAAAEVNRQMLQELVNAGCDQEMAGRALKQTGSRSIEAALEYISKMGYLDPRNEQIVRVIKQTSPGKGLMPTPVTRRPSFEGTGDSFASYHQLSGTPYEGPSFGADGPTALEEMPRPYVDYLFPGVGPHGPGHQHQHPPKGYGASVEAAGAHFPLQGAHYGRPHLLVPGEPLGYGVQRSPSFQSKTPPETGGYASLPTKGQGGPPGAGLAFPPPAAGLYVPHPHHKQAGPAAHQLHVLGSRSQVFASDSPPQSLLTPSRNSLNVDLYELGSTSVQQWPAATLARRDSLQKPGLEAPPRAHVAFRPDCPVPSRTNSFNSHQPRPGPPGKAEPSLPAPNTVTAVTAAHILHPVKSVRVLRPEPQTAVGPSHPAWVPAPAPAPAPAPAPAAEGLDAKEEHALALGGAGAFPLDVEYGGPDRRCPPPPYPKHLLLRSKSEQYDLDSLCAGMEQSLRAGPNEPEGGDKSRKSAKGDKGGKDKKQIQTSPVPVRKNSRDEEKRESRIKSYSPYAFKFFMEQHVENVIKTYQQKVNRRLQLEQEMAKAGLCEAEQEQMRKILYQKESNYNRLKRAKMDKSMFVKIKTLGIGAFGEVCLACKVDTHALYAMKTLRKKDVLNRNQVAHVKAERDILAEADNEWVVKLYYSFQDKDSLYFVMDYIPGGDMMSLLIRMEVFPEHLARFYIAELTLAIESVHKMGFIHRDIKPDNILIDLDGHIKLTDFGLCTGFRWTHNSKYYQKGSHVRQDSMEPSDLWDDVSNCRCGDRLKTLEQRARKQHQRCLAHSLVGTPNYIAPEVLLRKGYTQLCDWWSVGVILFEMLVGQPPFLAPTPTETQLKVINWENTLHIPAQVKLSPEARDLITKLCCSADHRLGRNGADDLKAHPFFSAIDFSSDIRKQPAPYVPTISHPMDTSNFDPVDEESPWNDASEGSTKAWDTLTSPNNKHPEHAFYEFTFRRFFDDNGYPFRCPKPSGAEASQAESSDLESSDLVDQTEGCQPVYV"}}, "data": [{"compound": "COCC(=O)NC/C=C/c1ccc2ncnc(Nc3ccc(Oc4ccc(C)nc4)c(C)c3)c2c1", "note": "[CP-724714]", "values": [{"measurement": "Kd", "setting": "[1]", "value": "> 10", "unit": "µM"}, {"measurement": "Kd", "setting": "[2]", "value": "> 10", "unit": "µM"}, {"measurement": "Kd", "setting": "SRSF protein kinase 1", "value": "> 10", "unit": "µM"}, {"measurement": "Kd", "setting": "[3]", "value": "> 10", "unit": "µM"}, {"measurement": "Kd", "setting": "[4]", "value": "> 10", "unit": "µM"}, {"measurement": "Kd", "setting": "[5]", "value": "> 10", "unit": "µM"}, {"measurement": "Kd", "setting": "[6]", "value": "> 10", "unit": "µM"}, {"measurement": "Kd", "setting": "[7]", "value": "> 10", "unit": "µM"}, {"measurement": "Kd", "setting": "[8]", "value": "> 10", "unit": "µM"}]}, {"compound": "Nc1nc(Nc2ccc(S(N)(=O)=O)cc2)nn1C(=O)c1c(F)cccc1F", "note": "[JNJ-7706621]", "values": [{"measurement": "Kd", "setting": "[2]", "value": "> 10", "unit": "µM"}, {"measurement": "Kd", "setting": "[3]", "value": "> 10", "unit": "µM"}, {"measurement": "Kd", "setting": "[5]", "value": "> 10", "unit": "µM"}, {"measurement": "Kd", "setting": "[6]", "value": "> 10", "unit": "µM"}, {"measurement": "Kd", "setting": "[7]", "value": "> 10", "unit": "µM"}]}, {"compound": "CCOc1cc2ncc(C#N)c(Nc3ccc(F)c(Cl)c3)c2cc1NC(=O)/C=C/CN(C)C", "note": "[PELITINIB]", "values": [{"measurement": "Kd", "setting": "[1]", "value": "> 10", "unit": "µM"}, {"measurement": "Kd", "setting": "[2]", "value": "> 10", "unit": "µM"}, {"measurement": "Kd", "setting": "SRSF protein kinase 1", "value": "> 10", "unit": "µM"}, {"measurement": "Kd", "setting": "[3]", "value": "> 10", "unit": "µM"}, {"measurement": "Kd", "setting": "[5]", "value": "> 10", "unit": "µM"}, {"measurement": "Kd", "setting": "[6]", "value": "> 10", "unit": "µM"}, {"measurement": "Kd", "setting": "[7]", "value": "> 10", "unit": "µM"}, {"measurement": "Kd", "setting": "[8]", "value": "> 10", "unit": "µM"}]}, {"compound": "Oc1ccc(-c2nc(-c3ccncc3)c(-c3ccc(F)cc3)[nH]2)cc1", "note": "[SB-202190]", "values": [{"measurement": "Kd", "setting": "[1]", "value": "> 10", "unit": "µM"}, {"measurement": "Kd", "setting": "[2]", "value": "> 10", "unit": "µM"}, {"measurement": "Kd", "setting": "SRSF protein kinase 1", "value": "> 10", "unit": "µM"}, {"measurement": "Kd", "setting": "[3]", "value": "> 10", "unit": "µM"}, {"measurement": "Kd", "setting": "[4]", "value": "> 10", "unit": "µM"}, {"measurement": "Kd", "setting": "[5]", "value": "> 10", "unit": "µM"}, {"measurement": "Kd", "setting": "[6]", "value": 0.028, "unit": "µM"}, {"measurement": "Kd", "setting": "[7]", "value": "> 10", "unit": "µM"}]}, {"compound": "NC(=O)c1ccc(-c2nc(-c3ccc4c(c3)OCO4)c(-c3ccccn3)[nH]2)cc1", "note": "[SB-431542]", "values": [{"measurement": "Kd", "setting": "[2]", "value": "> 10", "unit": "µM"}, {"measurement": "Kd", "setting": "SRSF protein kinase 1", "value": "> 10", "unit": "µM"}, {"measurement": "Kd", "setting": "[3]", "value": "> 10", "unit": "µM"}, {"measurement": "Kd", "setting": "[4]", "value": "> 10", "unit": "µM"}, {"measurement": "Kd", "setting": "[5]", "value": "> 10", "unit": "µM"}, {"measurement": "Kd", "setting": "[6]", "value": "> 10", "unit": "µM"}, {"measurement": "Kd", "setting": "[7]", "value": "> 10", "unit": "µM"}, {"measurement": "Kd", "setting": "[8]", "value": "> 10", "unit": "µM"}]}]}
